Test results published in patent US11723362B2, “Broad-spectrum synergistic antimicrobial compositions” (The United States of America, as represented by the …, priority 2019, dated 2023).
Values belong to the compound of their own block, whether it stands above or below them.

What was measured:
[1] = tested on: Aspergillus brasiliensis ATCC 16404; assay: Effect of pH on antifungal properties of HW formula under high fungal load; assay type: cell-based; details: HW with 0.5% CHA alone; 10^7 CFU/mL; pH 5.5-9.5; plated six days after inoculation
Source text: FIG. 1 illustrates the fungicidal properties of a handwash formula containing the inventive composition as further explained in the examples below. The Y axis presents the log reduction of cell forming units per mL (CFU/mL). The X axis presents the pH of the different formulas. Data for benzaldehyde guanylhydrazone 7+CHA is shown with black lines (BGH+CHA); data for benzaldehyde guanylhydrazone 7 (BGH) is shown with dotted lines; data for CHA alone is shown with grey lines.
(§1) This example illustrates the surprising synergistic antimicrobial activity of the inventive composition and related compositions for comparison tested on two of the most persistent microorganisms tested in the USP 51 protocol: A. brasiliensis (ATCC No. 16404) and P. aeruginosa (ATCC NO. 9027). The effect of pH on antifungal properties of a HW formula containing 0.4% 7 and 0.5% CHA, alone and in combination, was then evaluated under a high fungal load (10^7 CFU/mL). […] Without intending to be bound by theory, it was suspected that the poor performance of the combination at neutral pH results from the milder conditions of this formula, which is more encouraging to mold growth.

A. brasiliensis 16404 = assay: USP-51 preservative challenge test of anionic, amphoteric surfactant-containing hand wash; assay type: cell-based, Aspergillus brasiliensis; details: HW pH 6; formulas: 0.4% 7; 0.5% CHA; 0.2% 7 + 0.5% CHA
Description: (§2) Preservative challenge testing (USP-51).
as §1

E. coli = assay: Minimum inhibitory concentration (MIC) in Mueller-Hinton broth, pH 7.4; assay type: cell-based, Escherichia coli
Description: (§3) This example illustrates the preparation of testing parameters for antimicrobial activity of components of the inventive composition and related compositions for comparison. […] Microbes were grown on Mueller-Hinton agar (MHA, Sigma-Aldrich, St. Louis, Mo.) for 7 days until heavy sporulation was present. Spores from two agar plates were captured in sterile phosphate-buffered saline (PBS) using a sterile swab. Spores were enumerated by serial dilution in Dey-Engley neutralizing broth (DEB; Sigma-Aldrich) and spread plating on MHA. A typical spore stock was determined to contain ˜2×10^7 spores/mL. Bacteria were grown in MH broth for 24 h at 37° C., enumerated by plating, and diluted to the desired concentration as indicated.
(§4) To assess the antimicrobial activity of hydroxamic acids and derivatives, the inhibitory properties of commercially available hydroxylamines and hydroxamic acids were compared to their alcohol and carboxylic acid analogues diluted in Mueller-Hinton broth at pH 7.4 (Table 1).

C. albicans = assay: as above; assay type: cell-based, Candida albicans
Description: as §3, §4

P. aeruginosa = assay: as above; assay type: cell-based, Pseudomonas aeruginosa; parameters: Minimum inhibitory concentration: unit not given here
Description: as §3, §4
Guanylhydrazones 7 and 8, which represent a class of broad-spectrum antimicrobials, alone and in combination with hydroxamic acids were evaluated.

A. brasiliensis = assay: as above; assay type: cell-based, Aspergillus brasiliensis; parameters: Minimum inhibitory concentration: unit not given here
Description: as §3, §4

[2] = Dissolution / compatibility in water (observation); assay type: physicochemical; details: solubilizing for testing; room temperature
Description: Several aryl derivatives of benzhydroxamic acid were also tested.

S. aureus = assay: Minimum inhibitory concentration (MIC) in Mueller-Hinton broth, pH 7.4; assay type: cell-based, Staphylococcus aureus
Description: as §3, §4

mold = assay: USP <51> preservative efficacy in nonionic spray cleaner base (mold); assay type: cell-based, A. brasiliensis; details: alone, 0.1% in spray cleaner base
Source text: as §2

P. aeruginosa ATCC 9027 = assay: Tile surface disinfectant test (adapted from ASTM E1153); assay type: cell-based, Pseudomonas aeruginosa; details: 200 ppm; 4×10^6 CFU/mL; sprayed ceramic tile
Description: Tile surface disinfectant tests. Surface sanitation tests were adapted from ASTM Test Method E1153. Test bacteria (Escherichia coli ATCC 15597 and Pseudomonas aeruginosa ATCC 9027; American Type Culture Collection, Manassas, Va.) were streaked from frozen stock culture onto Mueller-Hinton agar (MHA; Sigma-Aldrich, St Louis, Mo.) and incubated at 30-37° C. for 2-4 days to produce isolated colonies. Two to three representative colonies were picked and transferred to 10 mL Mueller-Hinton broth (MHB; Sigma) and incubated at 37° C. overnight. Cultures underwent a maximum of 3 passes to fresh broth before being incubated for 48 h at 37° C. to be used as the inoculum. Sterile, glazed 2×2-inch ceramic tiles were inoculated with 100 μL of 48 h culture and allowed to dry for <1 h. Spray sanitizer solutions were prepared by mixing the test compound (5) in deionized, filtered water. Benzalkonium chloride (≥95%, Sigma) or bleach solution was used as a positive control and deionized, filtered water was used as a negative control. Solutions were transferred to 250 mL spray bottles, previously checked for spray volume consistency. For each treatment, tiles were sprayed 3 times. At the designated contact time, 15 mL of Dey-Engley broth (DEB; Sigma) was poured onto the tiles. Tiles were briskly swirled 50 times with DEB to neutralize antimicrobial agents and recover bacteria. This procedure was followed in duplicate for each treatment and contact time. The sanitizer-DEB solutions were then serially diluted in phosphate-buffered saline and plated on MHA. MHA plates were incubated at 37° C. for 18-24 h and colonies enumerated. To determine log reduction, bacteria recovered from treated tiles were compared to bacteria recovered from 2-3 replicate inoculated, untreated tiles.

MIC (E. coli): 0.1 wt % | MIC (C. albicans): 0.03 wt % | MIC (P. aeruginosa): 0.5 wt % | MIC (A. brasiliensis): 0.03 wt % | MIC (S. aureus): 0.2 wt %
SMILES: CCCCCCCC(=O)NO [Caprylhydroxamic acid (CHA), Caprylhydroxamic acid]
log reduction over the entire pH range [1]: 0-1 log | Log10 Reduction, Day 6 (A. brasiliensis 16404): 2.24 Log10 | Minimum inhibitory concentration (P. aeruginosa; Table 2, ATCC 9027): 0.5 | Minimum inhibitory concentration (A. brasiliensis; Table 2): 0.03 | dissolution behaviour [2]: required heating and stirring to solubilize

SMILES: O=C([O-])c1ccccc1.[Na+] [Sodium benzoate, sodium benzoate]
log reduction of mold (not eliminated to nondetectable levels) (mold): < 2 log

SMILES: OCl [sodium hypochlorite]
reduction at 15 seconds (P. aeruginosa ATCC 9027): 97.44% | reduction at 5 min (P. aeruginosa ATCC 9027): > 99.998% | reduction at 10 min (P. aeruginosa ATCC 9027): > 99.998%
